Data taken from PMC5605198, “MELK is not necessary for the proliferation of basal-like breast cancer cells” (eLife, 2017).
Like-named read-outs stand apart in the source and are kept apart here.

Assays:
[1] = molecular target: p38 gamma (Homo sapiens, UniProt P53778); assay: ICKP radiometric kinase assay; assay type: biochemical; settings: read-out: % AR (% kinase activity remaining)
[2] = molecular target: Aurora A (Homo sapiens, UniProt O14965); assay: ICKP radiometric kinase assay; assay type: biochemical; settings: read-out: % AR (% kinase activity remaining)
[3] = molecular target: BRSK1 (Homo sapiens, UniProt Q8TDC3); assay: ICKP radiometric kinase assay; assay type: biochemical; settings: read-out: % AR (% kinase activity remaining)
[4] = molecular target: PIM1 (Homo sapiens, UniProt P11309); assay: ICKP radiometric kinase assay; assay type: biochemical; settings: for remaining activity at 1 µM: read-out: % AR (% kinase activity remaining)
Chain of PIM1 (P11309 whole entry, species assumed): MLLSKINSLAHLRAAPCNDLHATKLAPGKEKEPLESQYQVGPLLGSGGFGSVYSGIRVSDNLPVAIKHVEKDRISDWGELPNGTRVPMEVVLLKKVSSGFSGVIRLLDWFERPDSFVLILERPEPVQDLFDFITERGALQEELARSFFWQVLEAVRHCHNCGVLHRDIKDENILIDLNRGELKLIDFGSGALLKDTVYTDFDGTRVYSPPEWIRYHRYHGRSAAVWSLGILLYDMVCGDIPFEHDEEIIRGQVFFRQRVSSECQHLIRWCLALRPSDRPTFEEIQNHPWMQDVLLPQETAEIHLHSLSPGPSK

[5] = molecular target: PIM3 (Homo sapiens, UniProt Q86V86); assay: ICKP radiometric kinase assay; assay type: biochemical; settings: read-out: % AR (% kinase activity remaining)
[6] = molecular target: JNK1 (Homo sapiens, UniProt P45983); assay: ICKP radiometric kinase assay; assay type: biochemical; settings: read-out: % AR (% kinase activity remaining)
[7] = molecular target: MPSK1 (Homo sapiens, UniProt O75716); assay: ICKP radiometric kinase assay; assay type: biochemical; settings: read-out: % AR (% kinase activity remaining)
[8] = molecular target: RSK1 (Homo sapiens, UniProt Q15418); assay: ICKP radiometric kinase assay; assay type: biochemical; settings: read-out: % AR (% kinase activity remaining)
[9] = molecular target: PKB beta (Homo sapiens, UniProt P31751); assay: ICKP radiometric kinase assay; assay type: biochemical; settings: read-out: % AR (% kinase activity remaining)
[10] = molecular target: ASK1 (Homo sapiens, UniProt Q99683); assay: ICKP radiometric kinase assay; assay type: biochemical; settings: read-out: % AR (% kinase activity remaining)
[11] = molecular target: BTK (Homo sapiens, UniProt Q06187); assay: ICKP radiometric kinase assay; assay type: biochemical; settings: read-out: % AR (% kinase activity remaining)
[12] = molecular target: DYRK2 (Homo sapiens, UniProt Q92630); assay: ICKP radiometric kinase assay; assay type: biochemical; settings: read-out: % AR (% kinase activity remaining)
Chain of DYRK2 (Q92630 whole entry): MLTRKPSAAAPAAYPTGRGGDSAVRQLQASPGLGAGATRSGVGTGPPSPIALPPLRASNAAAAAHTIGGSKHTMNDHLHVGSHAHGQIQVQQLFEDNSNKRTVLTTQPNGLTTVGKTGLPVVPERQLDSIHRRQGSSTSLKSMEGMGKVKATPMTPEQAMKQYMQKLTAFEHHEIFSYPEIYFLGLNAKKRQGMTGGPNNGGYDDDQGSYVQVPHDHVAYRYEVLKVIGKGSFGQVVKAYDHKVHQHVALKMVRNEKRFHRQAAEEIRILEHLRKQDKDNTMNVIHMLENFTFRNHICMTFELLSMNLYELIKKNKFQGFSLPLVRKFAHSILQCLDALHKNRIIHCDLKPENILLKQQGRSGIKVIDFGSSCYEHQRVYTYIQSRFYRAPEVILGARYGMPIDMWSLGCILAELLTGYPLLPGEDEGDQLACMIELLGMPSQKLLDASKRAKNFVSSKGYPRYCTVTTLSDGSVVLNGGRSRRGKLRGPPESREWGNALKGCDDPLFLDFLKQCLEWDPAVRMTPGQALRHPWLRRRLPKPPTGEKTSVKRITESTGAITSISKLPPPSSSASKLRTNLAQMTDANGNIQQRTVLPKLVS

[13] = molecular target: CK1 delta (Homo sapiens, UniProt P48730); assay: ICKP radiometric kinase assay; assay type: biochemical; settings: read-out: % AR (% kinase activity remaining)
[14] = molecular target: IRAK1 (Homo sapiens, UniProt P51617); assay: ICKP radiometric kinase assay; assay type: biochemical; settings: read-out: % AR (% kinase activity remaining)
[15] = molecular target: STK33 (Homo sapiens, UniProt Q9BYT3); assay: ICKP radiometric kinase assay; assay type: biochemical; settings: read-out: % AR (% kinase activity remaining)
[16] = molecular target: MELK (Homo sapiens, UniProt Q14680); assay: ICKP radiometric kinase assay; assay type: biochemical; settings: for remaining activity at 1 µM: read-out: % AR (% kinase activity remaining)
Chain of MELK (Q14680 whole entry): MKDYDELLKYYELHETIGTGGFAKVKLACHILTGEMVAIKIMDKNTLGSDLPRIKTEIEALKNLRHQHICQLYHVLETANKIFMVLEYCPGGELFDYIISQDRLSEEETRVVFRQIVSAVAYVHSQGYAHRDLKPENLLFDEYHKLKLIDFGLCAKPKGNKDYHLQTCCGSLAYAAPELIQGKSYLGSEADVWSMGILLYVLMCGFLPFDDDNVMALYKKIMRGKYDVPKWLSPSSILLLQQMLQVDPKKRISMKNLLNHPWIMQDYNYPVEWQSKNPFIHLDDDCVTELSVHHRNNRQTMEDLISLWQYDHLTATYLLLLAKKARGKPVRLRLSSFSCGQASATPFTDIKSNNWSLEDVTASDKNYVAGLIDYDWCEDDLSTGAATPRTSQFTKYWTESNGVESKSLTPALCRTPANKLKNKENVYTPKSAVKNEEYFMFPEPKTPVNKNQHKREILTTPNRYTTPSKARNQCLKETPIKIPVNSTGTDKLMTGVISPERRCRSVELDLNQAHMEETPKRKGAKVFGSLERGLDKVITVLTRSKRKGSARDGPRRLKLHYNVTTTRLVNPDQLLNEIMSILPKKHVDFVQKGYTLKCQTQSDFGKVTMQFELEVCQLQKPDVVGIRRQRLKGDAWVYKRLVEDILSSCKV

[17] = molecular target: ABL (Homo sapiens, UniProt P00519); assay: ICKP radiometric kinase assay; assay type: biochemical; settings: read-out: % AR (% kinase activity remaining)
[18] = tested on: MDA-MB-468; assay: Cell proliferation assay (CellTiter-Glo); settings: Homo sapiens
[19] = molecular target: MNK2 (Homo sapiens, UniProt Q9HBH9); assay: ICKP radiometric kinase assay; assay type: biochemical; settings: read-out: % AR (% kinase activity remaining)
[20] = molecular target: FGF-R1 (Homo sapiens, UniProt P11362); assay: ICKP radiometric kinase assay; assay type: biochemical; settings: read-out: % AR (% kinase activity remaining)
[21] = molecular target: JAK2 (Homo sapiens, UniProt O60674); assay: ICKP radiometric kinase assay; assay type: biochemical; settings: read-out: % AR (% kinase activity remaining)
[22] = molecular target: YES1 (Homo sapiens, UniProt P07947); assay: ICKP radiometric kinase assay; assay type: biochemical; settings: read-out: % AR (% kinase activity remaining)
[23] = molecular target: MAPKAP-K3 (Homo sapiens, UniProt Q16644); assay: ICKP radiometric kinase assay; assay type: biochemical; settings: read-out: % AR (% kinase activity remaining)
[24] = molecular target: EPH-B4 (Homo sapiens, UniProt P54760); assay: ICKP radiometric kinase assay; assay type: biochemical; settings: read-out: % AR (% kinase activity remaining)
[25] = molecular target: NUAK1 (Homo sapiens, UniProt O60285); assay: ICKP radiometric kinase assay; assay type: biochemical; settings: read-out: % AR (% kinase activity remaining)
[26] = molecular target: MST4 (Homo sapiens, UniProt Q9P289); assay: ICKP radiometric kinase assay; assay type: biochemical; settings: read-out: % AR (% kinase activity remaining)
[27] = molecular target: PKC gamma (Homo sapiens, UniProt P05129); assay: ICKP radiometric kinase assay; assay type: biochemical; settings: read-out: % AR (% kinase activity remaining)
[28] = molecular target: MNK1 (Homo sapiens, UniProt Q9BUB5); assay: ICKP radiometric kinase assay; assay type: biochemical; settings: read-out: % AR (% kinase activity remaining)
[29] = molecular target: CAMKK beta (Homo sapiens, UniProt Q96RR4); assay: ICKP radiometric kinase assay; assay type: biochemical; settings: read-out: % AR (% kinase activity remaining)
[30] = molecular target: PKC alpha (Homo sapiens, UniProt P17252); assay: ICKP radiometric kinase assay; assay type: biochemical; settings: read-out: % AR (% kinase activity remaining)
[31] = molecular target: PRAK (Homo sapiens, UniProt Q8IW41); assay: ICKP radiometric kinase assay; assay type: biochemical; settings: read-out: % AR (% kinase activity remaining)
[32] = molecular target: EPH-B3 (Homo sapiens, UniProt P54753); assay: ICKP radiometric kinase assay; assay type: biochemical; settings: read-out: % AR (% kinase activity remaining)
[33] = molecular target: SYK (Homo sapiens, UniProt P43405); assay: ICKP radiometric kinase assay; assay type: biochemical; settings: read-out: % AR (% kinase activity remaining)
[34] = tested on: T-47D; assay: Cell proliferation assay (CellTiter-Glo); settings: Homo sapiens, T47D
[35] = molecular target: RIPK2 (Homo sapiens, UniProt O43353); assay: ICKP radiometric kinase assay; assay type: biochemical; settings: for remaining activity at 1 µM: read-out: % AR (% kinase activity remaining)
Chain of RIPK2 (O43353 whole entry, species assumed): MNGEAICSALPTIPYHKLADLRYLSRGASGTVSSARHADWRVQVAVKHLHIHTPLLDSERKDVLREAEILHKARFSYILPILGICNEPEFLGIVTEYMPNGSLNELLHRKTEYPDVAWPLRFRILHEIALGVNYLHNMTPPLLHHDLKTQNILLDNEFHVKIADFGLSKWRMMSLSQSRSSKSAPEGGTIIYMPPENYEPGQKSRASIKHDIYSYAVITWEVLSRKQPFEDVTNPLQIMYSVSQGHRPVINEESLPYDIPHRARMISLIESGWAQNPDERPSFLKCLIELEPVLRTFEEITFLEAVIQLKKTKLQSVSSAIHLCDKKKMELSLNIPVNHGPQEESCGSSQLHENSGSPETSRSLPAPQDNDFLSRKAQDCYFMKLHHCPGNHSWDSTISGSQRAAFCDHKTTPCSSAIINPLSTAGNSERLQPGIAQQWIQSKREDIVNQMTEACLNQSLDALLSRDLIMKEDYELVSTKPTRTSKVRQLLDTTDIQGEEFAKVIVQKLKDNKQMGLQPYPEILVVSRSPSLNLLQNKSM

[36] = molecular target: EPH-A2 (Homo sapiens, UniProt P29317); assay: ICKP radiometric kinase assay; assay type: biochemical; settings: read-out: % AR (% kinase activity remaining)
[37] = molecular target: IR (Homo sapiens, UniProt P06213); assay: ICKP radiometric kinase assay; assay type: biochemical; settings: read-out: % AR (% kinase activity remaining)
Chain of IR (P06213 28-1382): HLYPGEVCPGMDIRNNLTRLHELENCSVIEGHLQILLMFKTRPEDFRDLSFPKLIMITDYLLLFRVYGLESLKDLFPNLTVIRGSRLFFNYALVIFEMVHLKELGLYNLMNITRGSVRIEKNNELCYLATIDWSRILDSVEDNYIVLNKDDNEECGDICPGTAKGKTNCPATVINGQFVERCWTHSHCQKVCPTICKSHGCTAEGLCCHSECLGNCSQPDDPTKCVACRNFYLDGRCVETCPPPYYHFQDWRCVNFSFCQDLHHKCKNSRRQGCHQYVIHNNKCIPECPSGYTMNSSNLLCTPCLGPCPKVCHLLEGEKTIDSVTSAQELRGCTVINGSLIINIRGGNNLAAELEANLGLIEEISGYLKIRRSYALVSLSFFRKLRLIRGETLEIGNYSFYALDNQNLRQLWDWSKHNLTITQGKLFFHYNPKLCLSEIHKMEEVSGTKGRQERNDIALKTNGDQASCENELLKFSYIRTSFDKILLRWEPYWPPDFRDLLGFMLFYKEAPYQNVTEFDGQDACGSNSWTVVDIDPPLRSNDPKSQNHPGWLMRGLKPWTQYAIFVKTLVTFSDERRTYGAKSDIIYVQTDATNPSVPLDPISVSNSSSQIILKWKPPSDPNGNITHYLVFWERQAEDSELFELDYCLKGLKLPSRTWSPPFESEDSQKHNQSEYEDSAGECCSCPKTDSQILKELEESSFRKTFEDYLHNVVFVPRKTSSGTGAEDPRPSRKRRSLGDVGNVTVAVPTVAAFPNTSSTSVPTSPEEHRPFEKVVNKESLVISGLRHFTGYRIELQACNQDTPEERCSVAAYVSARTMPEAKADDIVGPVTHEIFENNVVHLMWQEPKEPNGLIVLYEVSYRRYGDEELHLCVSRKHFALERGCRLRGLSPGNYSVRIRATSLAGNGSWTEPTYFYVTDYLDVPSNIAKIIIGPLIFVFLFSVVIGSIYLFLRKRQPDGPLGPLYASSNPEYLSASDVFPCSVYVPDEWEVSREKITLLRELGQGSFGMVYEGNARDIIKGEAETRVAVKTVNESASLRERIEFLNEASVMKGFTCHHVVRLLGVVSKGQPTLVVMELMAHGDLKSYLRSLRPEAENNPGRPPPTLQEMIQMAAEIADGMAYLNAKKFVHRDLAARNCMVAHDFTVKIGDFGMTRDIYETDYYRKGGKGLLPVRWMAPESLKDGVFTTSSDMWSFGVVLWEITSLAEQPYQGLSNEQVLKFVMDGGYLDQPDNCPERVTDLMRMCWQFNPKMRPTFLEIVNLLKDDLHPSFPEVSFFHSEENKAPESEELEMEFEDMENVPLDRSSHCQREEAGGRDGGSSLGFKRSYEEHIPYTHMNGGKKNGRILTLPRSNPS

[38] = molecular target: ZAP70 (Homo sapiens, UniProt P43403); assay: ICKP radiometric kinase assay; assay type: biochemical; settings: read-out: % AR (% kinase activity remaining)
[39] = molecular target: Aurora B (Homo sapiens, UniProt Q96GD4); assay: ICKP radiometric kinase assay; assay type: biochemical; settings: read-out: % AR (% kinase activity remaining)
[40] = molecular target: NEK2a (Homo sapiens, UniProt P51955); assay: ICKP radiometric kinase assay; assay type: biochemical; settings: read-out: % AR (% kinase activity remaining)
[41] = molecular target: IKK beta (Homo sapiens, UniProt O14920); assay: ICKP radiometric kinase assay; assay type: biochemical; settings: read-out: % AR (% kinase activity remaining)
[42] = molecular target: MARK2 (Homo sapiens, UniProt Q7KZI7); assay: ICKP radiometric kinase assay; assay type: biochemical; settings: read-out: % AR (% kinase activity remaining)
Chain of MARK2 (Q7KZI7 whole entry): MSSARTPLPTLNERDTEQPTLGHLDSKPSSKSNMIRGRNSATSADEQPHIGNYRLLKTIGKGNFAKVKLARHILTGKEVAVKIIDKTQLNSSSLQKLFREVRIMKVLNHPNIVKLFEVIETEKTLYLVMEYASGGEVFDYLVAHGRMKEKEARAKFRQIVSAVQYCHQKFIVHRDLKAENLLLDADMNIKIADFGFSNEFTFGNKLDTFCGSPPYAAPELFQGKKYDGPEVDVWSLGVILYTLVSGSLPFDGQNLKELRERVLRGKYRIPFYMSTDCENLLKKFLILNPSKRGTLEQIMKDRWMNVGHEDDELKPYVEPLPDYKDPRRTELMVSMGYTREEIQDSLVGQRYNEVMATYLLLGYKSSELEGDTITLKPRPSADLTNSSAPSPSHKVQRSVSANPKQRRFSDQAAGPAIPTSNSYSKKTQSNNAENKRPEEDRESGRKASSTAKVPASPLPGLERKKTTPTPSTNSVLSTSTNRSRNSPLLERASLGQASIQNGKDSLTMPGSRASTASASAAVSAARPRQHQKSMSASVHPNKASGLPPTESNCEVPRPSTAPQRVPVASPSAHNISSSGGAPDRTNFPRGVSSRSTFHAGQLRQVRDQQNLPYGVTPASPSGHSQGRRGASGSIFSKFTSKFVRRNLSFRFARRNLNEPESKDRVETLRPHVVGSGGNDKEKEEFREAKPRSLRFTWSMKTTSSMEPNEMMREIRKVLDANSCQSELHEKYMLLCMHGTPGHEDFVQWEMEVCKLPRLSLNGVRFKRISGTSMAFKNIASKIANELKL

[43] = molecular target: OSR1 (Homo sapiens, UniProt O95747); assay: ICKP radiometric kinase assay; assay type: biochemical; settings: read-out: % AR (% kinase activity remaining)
[44] = MDA-MB-468, 72 h, read-out: 3-day antiproliferative IC50
[45] = MDA-MB-468, 168 h, read-out: 7-day antiproliferative IC50
[46] = 72 h, read-out: 3-day antiproliferative IC50
[47] = 168 h, read-out: 7-day antiproliferative IC50

`CN(C)C[C@H]1CC[C@H](N2C(=O)NCc3cnc4ccc(-c5cc(Cl)c(O)c(Cl)c5)cc4c32)CC1` [HTH-01-091, 9-(3,5-dichloro-4-hydroxyphenyl)-1-(trans-4-((dimethylamino)methyl)cyclohexyl)-3,4-dihydropyrimido[5,4 c]quinolin-2(1H)-one] showed a remaining activity at 1 µM [1] of 86%, a remaining activity at 1 µM [2] of 98% and a remaining activity at 1 µM [3] of 85%. The remaining activity at 1 µM [4] was 1%, the IC50 ([4]; radioactive filter-binding assay provided by the ICKP, read-out: Enzymatic IC50 PIM1) was 60.6 nM and the remaining activity at 1 µM [5] was 1%. It also gave a remaining activity at 1 µM [6] of 97%, a remaining activity at 1 µM [7] of 107% and a remaining activity at 1 µM [8] of 48%. The remaining activity at 1 µM [9] was 88%, the remaining activity at 1 µM [10] was 90% and the remaining activity at 1 µM [11] was 45%. It also gave a remaining activity at 1 µM [12] of 18%, a remaining activity at 1 µM [13] of 36% and a remaining activity at 1 µM [14] of 86%. For the same compound, the remaining activity at 1 µM [15] was 26%, the remaining activity at 1 µM [16] was 13% and the IC50 ([16]; radioactive filter-binding assay provided by the ICKP, read-out: Enzymatic IC50 MELK) was 15.3 nM. For the same compound, the remaining activity at 1 µM [17] was 70%, the IC50 [18, 44] was 4000 nM and the IC50 [18, 45] was 2710 nM. It also gave a remaining activity at 1 µM [19] of 103%, a remaining activity at 1 µM [20] of 82% and a remaining activity at 1 µM [21] of 39%. The remaining activity at 1 µM [22] was 32%, the remaining activity at 1 µM [23] was 89% and the remaining activity at 1 µM [24] was 104%. The remaining activity at 1 µM [25] was 66%, the remaining activity at 1 µM [26] was 96% and the remaining activity at 1 µM [27] was 71%. For the same compound, the remaining activity at 1 µM [28] was 109%, the remaining activity at 1 µM [29] was 91% and the remaining activity at 1 µM [30] was 79%. For the same compound, the remaining activity at 1 µM [31] was 78%, the remaining activity at 1 µM [32] was 99% and the remaining activity at 1 µM [33] was 112%. The IC50 [34, 46] was 3870 nM, the IC50 [34, 47] was 780 nM and the remaining activity at 1 µM [35] was 3%. It also gave an IC50 ([35]; radioactive filter-binding assay provided by the ICKP, read-out: Enzymatic IC50 RIPK2) of 42.5 nM, a remaining activity at 1 µM [36] of 66% and a remaining activity at 1 µM [37] of 100%. For the same compound, the remaining activity at 1 µM [38] was 98%, the remaining activity at 1 µM [39] was 35% and the remaining activity at 1 µM [40] was 100%. For the same compound, the remaining activity at 1 µM [41] was 104%, the remaining activity at 1 µM [42] was 94% and the remaining activity at 1 µM [43] was 93%.

In the case of `CC(=O)c1cnc2ccc(-c3cc(Cl)c(O)c(Cl)c3)nc2c1N[C@H]1CC[C@H](CN(C)C)CC1` [OTSSP167], the remaining activity at 1 µM [1] is reported as 12%, the remaining activity at 1 µM [2] is reported as 10% and the remaining activity at 1 µM [3] is reported as 2%. For the same compound, the remaining activity at 1 µM [4] was 10%, the remaining activity at 1 µM [5] was 1% and the remaining activity at 1 µM [6] was 10%. It also gave a remaining activity at 1 µM [7] of 5%, a remaining activity at 1 µM [8] of 3% and a remaining activity at 1 µM [9] of 24%. For the same compound, the remaining activity at 1 µM [10] was 7%, the remaining activity at 1 µM [11] was 7% and the remaining activity at 1 µM [12] was 1%. For the same compound, the remaining activity at 1 µM [13] was 6%, the remaining activity at 1 µM [14] was 3% and the remaining activity at 1 µM [15] was 10%. For the same compound, the remaining activity at 1 µM [16] was 6%, the remaining activity at 1 µM [17] was 1% and the IC50 [18, 44] was 14 nM. It also gave an IC50 [18, 45] of 12 nM, a remaining activity at 1 µM [19] of 13% and a remaining activity at 1 µM [20] of 4%. The remaining activity at 1 µM [21] was 3%, the remaining activity at 1 µM [22] was 18% and the remaining activity at 1 µM [23] was 94%. The remaining activity at 1 µM [24] was 2%, the remaining activity at 1 µM [25] was 0% and the remaining activity at 1 µM [26] was 5%. It also gave a remaining activity at 1 µM [27] of 1%, a remaining activity at 1 µM [28] of 28% and a remaining activity at 1 µM [29] of 2%. The remaining activity at 1 µM [30] was 7%, the remaining activity at 1 µM [31] was 16% and the remaining activity at 1 µM [32] was 18%. It also gave a remaining activity at 1 µM [33] of 7%, an IC50 [34, 46] of 106 nM and an IC50 [34, 47] of 9 nM. For the same compound, the remaining activity at 1 µM [35] was 4%, the remaining activity at 1 µM [36] was 7% and the remaining activity at 1 µM [37] was 2%. The remaining activity at 1 µM [38] was 78%, the remaining activity at 1 µM [39] was 14% and the remaining activity at 1 µM [40] was 59%. For the same compound, the remaining activity at 1 µM [41] was 41%, the remaining activity at 1 µM [42] was 23% and the remaining activity at 1 µM [43] was 45%.
